Drawing on patent EP0678100B1, “SYNTHETIC AMPHIPATHIC PEPTIDES WITH ANTIMICROBIAL ACTIVITY” (PIONEER HI-BRED INTERNATIONAL, INC., priority 1993, dated 1998), this text covers MIC and MCIC for 9 molecules.

Converted amounts (≈) assume the structure as drawn. Read-outs that look alike come from different tables or passages of the source. Residues, ends and D or L forms follow the SMILES beside them. No end group written: not given here.

In assay [1] the test system is F. graminearum.
Assay [2] has as its system F. moniliforme. As to conditions: for MCIC: Minimum Complete Inhibitory Concentration, achieving a score of 3 or greater.
The subject of assay [3] is A. flavus. The settings on record: for MCIC: Minimum Complete Inhibitory Concentration, achieving a score of 3 or greater.
The mark [4] stands for this setting: F. graminearum, minimum inhibitory concentration, achieving a score of 1 or greater.
The mark [5] stands for this setting: F. moniliforme, minimum inhibitory concentration, achieving a score of 1 or greater.
[6] abbreviates: A. flavus, minimum inhibitory concentration, achieving a score of 1 or greater.

In the case of `CC[C@H](C)[C@H](NC(=O)CNC(=O)[C@@H](NC(=O)[C@@H](NC(=O)[C@@H](NC(=O)CNC(=O)[C@@H]1CCCN1C(=O)CNC(=O)[C@H](C)NC(=O)[C@H](CCCCN)NC(=O)[C@@H](NC(=O)[C@H](CCCCN)NC(=O)[C@H](CCCCN)NC(=O)[C@@H]1CCCN1C(=O)[C@@H](NC(=O)[C@H](Cc1c[nH]cn1)NC(=O)[C@H](CCCCN)NC(=O)[C@@H](NC(=O)[C@H](C)NC(=O)[C@H](CCCCN)NC(=O)[C@H](CCC(=O)O)NC(=O)[C@@H](NC(=O)[C@H](CCCCN)NC(=O)[C@@H](N)CCCCN)[C@@H](C)CC)[C@@H](C)CC)[C@@H](C)CC)[C@@H](C)CC)C(C)C)[C@@H](C)O)[C@@H](C)CC)C(=O)N[C@@H](C)C(=O)N[C@@H](Cc1c[nH]cn1)C(=O)N[C@@H](C)C(=O)N[C@@H](CCCCN)C(=O)N[C@@H](CO)C(=O)N[C@@H](CCC(N)=O)C(=O)N[C@@H](CC(C)C)C(=O)N[C@@H](Cc1c[nH]c2ccccc12)C(=O)O` [Peptide 1] (H-KKIEKAIKHIPKKIKAGPGVTIGIAHAKSQLW-OH), the MIC in assay [1] (setting [4]) stood at 0.017 ng/mL (≈ 0.00487 nM); in assay [2] (setting [5]) it was 17.

As for `CC[C@H](C)[C@H](NC(=O)CNC(=O)[C@@H](NC(=O)[C@@H](NC(=O)[C@@H](NC(=O)CNC(=O)[C@@H]1CCCN1C(=O)CNC(=O)[C@H](C)NC(=O)[C@H](CCCCN)NC(=O)[C@H](Cc1c[nH]c2ccccc12)NC(=O)[C@H](Cc1c[nH]cn1)NC(=O)[C@H](CCCNC(=N)N)NC(=O)[C@H](C)NC(=O)[C@H](CC(C)C)NC(=O)[C@H](C)NC(=O)[C@H](CCCNC(=N)N)NC(=O)[C@H](CC(C)C)NC(=O)[C@H](C)NC(=O)[C@H](CCCCN)NC(=O)[C@H](CCCCN)NC(=O)[C@H](CC(C)C)NC(=O)[C@@H](N)CCCCN)C(C)C)[C@@H](C)O)[C@@H](C)CC)C(=O)N[C@@H](C)C(=O)N[C@@H](Cc1c[nH]cn1)C(=O)N[C@@H](C)C(=O)N[C@@H](CCCCN)C(=O)N[C@@H](CO)C(=O)N[C@@H](CCC(N)=O)C(=O)N[C@@H](CC(C)C)C(=O)N[C@@H](Cc1c[nH]c2ccccc12)C(=O)O` [Peptide 2] (H-KLKKALRALARHWKAGPGVTIGIAHAKSQLW-OH), the results for the MIC in assay [1] (setting [4]) and in assay [2] (setting [5]) were 0.014 ng/mL (≈ 0.00411 nM) and 14, respectively.

For `CC[C@H](C)[C@H](NC(=O)CNC(=O)[C@@H](NC(=O)[C@@H](NC(=O)[C@@H](NC(=O)CNC(=O)[C@@H]1CCCN1C(=O)CNC(=O)[C@H](C)NC(=O)[C@H](CC(C)C)NC(=O)[C@H](C)NC(=O)[C@H](CCCNC(=N)N)NC(=O)[C@@H](NC(=O)[C@H](CCCCN)NC(=O)[C@@H](NC(=O)[C@H](CCCCN)NC(=O)[C@H](CCCCN)NC(=O)[C@@H]1CCCN1C(=O)[C@@H](NC(=O)[C@H](Cc1c[nH]cn1)NC(=O)[C@H](CCCCN)NC(=O)[C@@H](NC(=O)[C@H](C)NC(=O)[C@H](CCCCN)NC(=O)[C@H](CCC(=O)O)NC(=O)[C@@H](NC(=O)[C@H](CCCCN)NC(=O)[C@H](CCCCN)NC(=O)[C@@H](NC(=O)[C@H](C)NC(=O)[C@H](CCCNC(=N)N)NC(=O)[C@@H](N)CCC(N)=O)C(C)C)[C@@H](C)CC)[C@@H](C)CC)[C@@H](C)CC)[C@@H](C)CC)[C@@H](C)CC)C(C)C)[C@@H](C)O)[C@@H](C)CC)C(=O)N[C@@H](C)C(=O)N[C@@H](Cc1c[nH]cn1)C(=O)N[C@@H](C)C(=O)N[C@@H](CCCCN)C(=O)N[C@@H](CO)C(=O)N[C@@H](CCC(N)=O)C(=O)N[C@@H](CC(C)C)C(=O)N[C@@H](Cc1c[nH]c2ccccc12)C(=O)O` [Peptide 4] (H-QRAVKKIEKAIKHIPKKIKIRALAGPGVTIGIAHAKSQLW-OH), the MIC in assay [1] (setting [4]) is 0.013 ng/mL (≈ 0.00296 nM); in assay [2] (setting [5]) it was 17.

Consider `CC[C@H](C)[C@H](NC(=O)CNC(=O)[C@@H](NC(=O)[C@@H](NC(=O)[C@@H](NC(=O)CNC(=O)[C@@H]1CCCN1C(=O)CNC(=O)[C@H](C)NC(=O)[C@@H](NC(=O)[C@H](C)NC(=O)[C@H](CCCNC(=N)N)NC(=O)[C@H](CCC(N)=O)NC(=O)[C@H](CC(C)C)NC(=O)[C@H](C)NC(=O)[C@H](CCCNC(=N)N)NC(=O)[C@@H](NC(=O)[C@H](CCCCN)NC(=O)[C@H](CCCNC(=N)N)NC(=O)[C@H](CCCNC(=N)N)NC(=O)[C@H](CC(C)C)NC(=O)[C@H](Cc1c[nH]c2ccccc12)NC(=O)[C@H](CCCNC(=N)N)NC(=O)[C@@H](NC(=O)[C@H](CC(C)C)NC(=O)[C@H](CCCCN)NC(=O)[C@H](CCCNC(=N)N)NC(=O)[C@@H](NC(=O)[C@H](CC(C)C)NC(=O)[C@@H](N)CCCCN)[C@@H](C)CC)[C@@H](C)CC)[C@@H](C)CC)C(C)C)C(C)C)[C@@H](C)O)[C@@H](C)CC)C(=O)N[C@@H](C)C(=O)N[C@@H](Cc1c[nH]cn1)C(=O)N[C@@H](C)C(=O)N[C@@H](CCCCN)C(=O)N[C@@H](CO)C(=O)N[C@@H](CCC(N)=O)C(=O)N[C@@H](CC(C)C)C(=O)N[C@@H](Cc1c[nH]c2ccccc12)C(=O)O` [Peptide 7] (H-KLIRKLIRWLRRKIRALQRAVAGPGVTIGIAHAKSQLW-OH), for which the MIC in assay [3] (setting [6]) is 40; in assay [1], 0.01 ng/mL (≈ 0.00229 nM); in assay [2] (setting [5]), 10.

For the molecule `CC[C@H](C)[C@H](NC(=O)[C@H](C)NC(=O)[C@H](CCCNC(=N)N)NC(=O)[C@H](Cc1ccc(O)cc1)NC(=O)[C@@H](NC(=O)[C@H](CCCNC(=N)N)NC(=O)[C@@H](N)CCCNC(=N)N)[C@@H](C)CC)C(=O)N[C@@H](CCCNC(=N)N)C(=O)N[C@@H](Cc1c[nH]cn1)C(=O)N[C@H](C(=O)N1CCC[C@H]1C(=O)N[C@@H](CCCNC(=N)N)C(=O)N[C@@H](CCCNC(=N)N)C(=O)N[C@H](C(=O)N[C@@H](CCCNC(=N)N)C(=O)NCC(=O)N[C@@H](Cc1c[nH]c2ccccc12)C(=O)N[C@@H](CC(C)C)C(=O)N[C@@H](CCCNC(=N)N)C(=O)N[C@@H](CCCNC(=N)N)C(=O)N[C@H](C(=O)NCC(=O)N[C@@H](CCCNC(=N)N)C(=O)N[C@@H](CCCNC(=N)N)C(=O)N[C@H](C(=O)N[C@@H](CCC(=O)O)C(=O)N[C@@H](CCCNC(=N)N)C(=O)N[C@H](C(=O)NCC(=O)N[C@@H](CCC(N)=O)C(=O)N[C@@H](Cc1c[nH]cn1)C(=O)O)C(C)C)[C@@H](C)CC)[C@@H](C)CC)[C@@H](C)CC)[C@@H](C)CC` [Peptide 9] (H-RRIYRAIRHIPRRIRGWLRRIGRRIERVGQH-OH), the MIC in assay [3] is 15; in assay [1] (setting [4]) it was 0.01 ng/mL (≈ 0.0025 nM); in assay [2], 10.

For the molecule `CC[C@H](C)[C@H](NC(=O)[C@H](C)NC(=O)[C@H](CCCCN)NC(=O)[C@H](CCC(=O)O)NC(=O)[C@@H](NC(=O)[C@H](CCCCN)NC(=O)[C@@H](N)CCCCN)[C@@H](C)CC)C(=O)N[C@@H](CCCCN)C(=O)N[C@@H](Cc1c[nH]cn1)C(=O)N[C@H](C(=O)N1CCC[C@H]1C(=O)N[C@@H](CCCCN)C(=O)N[C@@H](CCCCN)C(=O)N[C@H](C(=O)N[C@@H](CCCCN)C(=O)N[C@@H](CC(C)C)C(=O)N[C@@H](CCCCN)C(=O)N[C@@H](CCCCN)C(=O)N[C@@H](C)C(=O)N[C@@H](CC(C)C)C(=O)N[C@@H](CCCNC(=N)N)C(=O)N[C@@H](C)C(=O)N[C@@H](CC(C)C)C(=O)N[C@@H](C)C(=O)N[C@@H](CCCNC(=N)N)C(=O)N[C@@H](Cc1c[nH]cn1)C(=O)N[C@@H](Cc1c[nH]c2ccccc12)C(=O)N[C@@H](CCCCN)C(=O)O)[C@@H](C)CC)[C@@H](C)CC` [Peptide 10] (H-KKIEKAIKHIPKKIKLKKALRALARHWK-OH), the results for the MIC in assay [3] (setting [6]), in assay [1] (setting [4]) and in assay [2] (setting [5]) were 80, 0.01 ng/mL (≈ 0.00296 nM) and 7.5, respectively.

Take Cecropin A [reference compound]: the MCIC in assay [3] (A. flavus), in assay [1] and in assay [2] (F. moniliforme) was over 80 µg/mL in each case. Further, the MIC in assay [3] (setting [6]) came to 80; in assay [1] it was 0.06 ng/mL; in assay [2] (setting [5]), 80.

Turning to “IRALQRAVRHPRAIRRIYRGWKKAIRAGPGVTIGIAHAKSQLW [Peptide 6]”, the values for the MIC in assay [3] (setting [6]), in assay [1] (setting [4]) and in assay [2] (setting [5]) were 80, 0.01 ng/mL and 15, respectively.

For the molecule Mastoparan [reference compound], the MCIC was 40 µg/mL in assay [3] (A. flavus), 10 µg/mL in assay [1] and 10 µg/mL in assay [2] (F. moniliforme). The MIC turned out to be 20 in assay [3] (setting [6]), 0.005 ng/mL in assay [1] and 2.5 in assay [2] (setting [5]).
